Reference: patent publication US4243681A, “Alkylthiophenoxypropanolamines and pharmaceutical compositions and uses thereof” (priority 1979, dated 1981)
Structures can show the parent of a compound that is named as a salt.

system: human platelet-rich plasma; assay: Inhibition of platelet aggregation in vitro (ADP or collagen induced; antithrombogenic activity); format: cell-based; settings: aggregation induced by 1 mcg. ADP
Description: Test Method. A method similar to that described in Born, Nature 194, 927 (1962) and O'Brien, J. Clinical Pathology 15, 446 (1962). This test comprises a nephelometric method in which the change in turbidity of a specimen of human platelet-rich plasma is measured on causation of platelet aggregation by addition of adenosine diphosphate (ADP) or collagen as the thrombogenic inducing agent. An increase in transmittance light occurs when the thrombogenic agent is added to the specimen of platelet-rich plasm due to clumping of platelets. Efficacy of the test compound is determined by ability to prevent the clumping and concommitant increase in transmittance. Various concentrations of the test agent are tested and that concentration causing a 50% reduction in the thrombogenic response is determined from a concentration-response curve.

Row | SMILES | ED50 ADP (inhibition of platelet aggregation)
1 | CCCCCCCCNCC(O)COc1ccc(SC)cc1 (stereo not shown) [Example 1, 1-[4-(Methylthio)phenoxy]-3-(octylamino)-2-propanol] | 69 Microgram/0.5 ml. plateletrich human plasma
2 | CSc1ccc(OCC(O)CNC(C)C)cc1 (stereo not shown) [Test agent B, 1-(isopropylamino)-3-[4-(methylthio)phenoxy]-2-propanol, reference compound] | 107 Microgram/0.5 ml. plateletrich human plasma
3 | CC(C)Sc1ccc(OCC(O)CNCCC2CCCCC2)cc1 (stereo not shown) [Example 5, 1-[(2-cyclohexylethyl)amino]-3-[4-[(1-methylethyl)thio]phenoxy]-2-propanolhydrochloride] | 56 Microgram/0.5 ml. plateletrich human plasma

same assay, conditions: minimal amount of collagen producing maximal aggregation

Row | SMILES | ED50 Coll (inhibition of platelet aggregation)
4 | CCCCCCCCNCC(O)COc1ccc(SC)cc1 (stereo not shown) [Example 1, 1-[4-(Methylthio)phenoxy]-3-(octylamino)-2-propanol] | 42 Microgram/0.5 ml. plateletrich human plasma
5 | CSc1ccc(OCC(O)CNC(C)C)cc1 (stereo not shown) [Test agent B, 1-(isopropylamino)-3-[4-(methylthio)phenoxy]-2-propanol, reference compound] | 28 Microgram/0.5 ml. plateletrich human plasma
6 | CC(C)Sc1ccc(OCC(O)CNCCC2CCCCC2)cc1 (stereo not shown) [Example 5, 1-[(2-cyclohexylethyl)amino]-3-[4-[(1-methylethyl)thio]phenoxy]-2-propanolhydrochloride] | 47 Microgram/0.5 ml. plateletrich human plasma

system: rabbit thoracic aorta; assay: Isolated rabbit thoracic aorta, antispasmodic activity vs. potassium chloride; format: cell-based, rabbit (New Zealand White); settings: potassium chloride-induced spasms
Description: (§1) Test Method. Antispasmodic activity was assessed in vitro by determining the effect of the test substance on induced contraction of arterial smooth muscle as follows. Adult, male, New Zealand White rabbits (body weight 2.5-4 kg.) were used. Each rabbit was killed by i.v. air injection. The thorax was opened and the descending thoracic aorta removed and placed in Kreb's-bicarbonate solution. Extraneous tissue was removed and the aorta was cut spirally along its entire length. Four spiral segments, each approximately 2 cm. in length (unstretched), were obtained from each thoracic aorta. […] The bath medium surrounding the aortic spiral (Kreb's-bicarbonate solution) was maintained at 37.5°C. and constantly aerated with 95% O2 :5% CO2. Activity of the aortic smooth muscle was recorded on an electronic polygraph via its connection to the tension transducer. After an equilibration period of 60 min., a cumulative dose-response curve was obtained to an agonist (e.g. potassium chloride or norepinephrine) and the tissue then washed. Seventy-five min. later, a second cumulative dose-response curve to the agonist was obtained and the tissue washed again. Sixty min. later, a test drug solution was added to the tissue bath fluid and, after 15 min., drug exposure and, without washing, a third and final agonist-response curve was obtained. All additions to the bath fluid were 0.1 ml. volumes of aqueous solutions.

Row | SMILES | antispasmodic potency relative to prior art compounds A and B | antispasmodic activity (in words)
7 | CCCCCCCCCCCCNCC(O)COc1ccc(SC(C)C)cc1.Cl (stereo not shown) [Example 4, 1-[4-[(1-Methylethyl)thio]phenoxy]-3-(dodecylamino)-2-Propanol Hydrochloride] | twice as potent | –
8 | CSc1ccc(OCC(O)CNC(C)C)cc1 (stereo not shown) [Test agent B, 1-(isopropylamino)-3-[4-(methylthio)phenoxy]-2-propanol, reference compound] | – | relatively weak activity

same assay, conditions: potency relative to papaverine (equals one), from pA2 vs. potassium chloride

Row | SMILES | Antispasmodic Potency
9 | CCCCCCCCCCCCNCC(O)COc1ccc(SC(C)C)cc1.Cl (stereo not shown) [Example 4, 1-[4-[(1-Methylethyl)thio]phenoxy]-3-(dodecylamino)-2-Propanol Hydrochloride] | 0.08
10 | CSc1ccc(OCC(O)CNC(C)C)cc1 (stereo not shown) [Test agent B, 1-(isopropylamino)-3-[4-(methylthio)phenoxy]-2-propanol, reference compound] | 0.04
11 | CC(C)Sc1ccc(OCC(O)CNCCC2CCCCC2)cc1 (stereo not shown) [Example 5, 1-[(2-cyclohexylethyl)amino]-3-[4-[(1-methylethyl)thio]phenoxy]-2-propanolhydrochloride] | 2.4

biological target: T1, adrenergic beta-receptor (Cavia porcellus, UniProt Q8K4Z4); assay: Beta-adrenergic blocking activity in the isolated guinea pig trachea (isoproterenol); format: cell-based; settings: not given
T1 construct: Tracheas excised from adult guinea pigs; from tissue; host or cells: guinea pig trachea (spirally cut segments)
Description: Test Method. […] The lower end of a tracheal segment is fixed to a stationary glass rod and the upper end is threaded to an isometric tension transducer. Changes in the spontaneous tonus of the tracheal smooth muscle are monitored via the transducer and recorded continuously on an electronic recorder. Adrenergic beta-receptor blocking activity is determined by the ability of a test agent to inhibit the response of the isolated tissue to the adrenergic beta-stimulant "isoproterenol" at a concentration of 0.1 mcg./ml. bath fluid. The tissues are exposed to the test agent solution for a 15-min. interval prior to the addition of isoproterenol to the bath fluid. Beta-receptor blocking potency of a test drug is ascertained from concentration-response relationships wherein the response is expressed as a percent inhibition of isoproterenol-induced tissue response. […] Each drug solution is added to the tissue bathing medium at a constant volume of 0.2 ml./ml. of bath fluid and only one test drug concentration is employed for an individual tissue segment. Potency of the test agent relative to that of the beta-adrenergic blocking agent "propanolol" as a reference standard is assessed by comparing the IC50 values.

T1 sequence (Q8K4Z4 whole entry): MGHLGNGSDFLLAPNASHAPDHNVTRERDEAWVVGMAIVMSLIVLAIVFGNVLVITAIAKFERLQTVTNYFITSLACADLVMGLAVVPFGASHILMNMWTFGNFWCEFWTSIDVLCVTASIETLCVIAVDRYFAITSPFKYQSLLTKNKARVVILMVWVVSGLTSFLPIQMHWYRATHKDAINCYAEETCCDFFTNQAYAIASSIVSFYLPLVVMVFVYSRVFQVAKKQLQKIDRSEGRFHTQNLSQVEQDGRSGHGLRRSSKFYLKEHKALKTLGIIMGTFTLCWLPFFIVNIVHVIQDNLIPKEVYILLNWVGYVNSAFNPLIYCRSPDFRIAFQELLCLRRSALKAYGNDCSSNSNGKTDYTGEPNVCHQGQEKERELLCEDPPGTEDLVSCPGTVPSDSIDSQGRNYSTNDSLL

Row | beta-adrenergic blocking activity (in words) | SMILES
12 | substantial activity | CSc1ccc(OCC(O)CNC(C)C)cc1 (stereo not shown) [Test agent B, 1-(isopropylamino)-3-[4-(methylthio)phenoxy]-2-propanol, reference compound]

same assay, conditions: potency relative to propanol (equals one); isoproterenol 0.1 mcg./ml.

Row | Beta-Adrenergic Blocking Potency | SMILES
13 | < 0.001 | CCCCCCCCNCC(O)COc1ccc(SC)cc1 (stereo not shown) [Example 1, 1-[4-(Methylthio)phenoxy]-3-(octylamino)-2-propanol]
14 | 0.2 | CSc1ccc(OCC(O)CNC(C)C)cc1 (stereo not shown) [Test agent B, 1-(isopropylamino)-3-[4-(methylthio)phenoxy]-2-propanol, reference compound]
15 | < 0.0006 | CC(C)Sc1ccc(OCC(O)CNCCC2CCCCC2)cc1 (stereo not shown) [Example 5, 1-[(2-cyclohexylethyl)amino]-3-[4-[(1-methylethyl)thio]phenoxy]-2-propanolhydrochloride]

Row | SMILES | Beta-Adrenergic Blocking Potency
16 | CCCCCCCCCCCCNCC(O)COc1ccc(SC(C)C)cc1.Cl (stereo not shown) [Example 4, 1-[4-[(1-Methylethyl)thio]phenoxy]-3-(dodecylamino)-2-Propanol Hydrochloride] | < 0.001

system: perfused dog hind limb; assay: Peripheral vasodilator activity, perfused dog hind limb (anesthetized dog); format: in vivo; settings: infusion dose 1.0 mg./min.
Description: Test Method. Mongrol dogs of either sex weighing between 11 and 16 kg., each, were anesthetized with pentobarbital (30 mg./kg.) administered intravenously. The left brachial vein was cannulated and pentobarbital infused continuously throughout the experiment at a rate of 5 mg./kg./hr. A tracheotomy was performed and dogs ventilated mechanically with room air at a rate of 18 strokes/min. and a volume equivalent to 20 ml./kg. The vagi were sectioned bilaterally in the mid-cervical region of the neck. The right brachial vein and artery were cannulated to inject drugs and to monitor blood pressure via a Statham pressure transducer, respectively. All measurements were recorded on a Beckman-Offner dynograph. The abdominal aorta was exposed through midline incision and a loose ligature placed around the aorta distal to the left renal artery. The right (donor) and left (recipient) femoral arteries were exposed for cannulation and subsequent hind-limb perfursion. Following intravenous administration of heparin (5 mg/kg.) and gallamine triethiodide (2 mg./kg.), the right femoral artery was cannulated and the tip of the catheter advanced into the abdominal aorta to the level of the renal arteries. The left femoral artery was cannulated and the hind-limb perfused using a Harvard Perfusion pump. The ligature previously placed around the aorta was subsequently tied to minimize collateral circulation. […] Perfusion pressure, measured at a point distal to the perfusion pump was set equal to 150 mm Hg. by adjusting pump speed. Blood flow to the limb was determined volumetrically at the conclusion of the experiment. The test agent was administered by infusion at a rate of from 0.1-1.0 mg./min. for a six-minute period and maximum reduction in pressure determined. One to three animals were employed per test agent. […] This protocol precludes effects resulting from animal variation thus permitting a direct side-by-side comparison of vasodilating activity.

Row | SMILES | pressure reduction (findings, range over compounds)
17 | CSc1ccc(OCC(O)CNC(C)C)cc1 (stereo not shown) [Test agent B, 1-(isopropylamino)-3-[4-(methylthio)phenoxy]-2-propanol, reference compound] | 27-29 mm Hg

same assay, conditions: infusion rate 0.3 mg./min.

Row | SMILES | Pressure Decrease
18 | CCCCCCCCNCC(O)COc1ccc(SC)cc1 (stereo not shown) [Example 1, 1-[4-(Methylthio)phenoxy]-3-(octylamino)-2-propanol] | -22 Millimeters of mercury
19 | COc1ccc(Cc2nccc3cc(OC)c(OC)cc23)cc1OC [Papaverine, reference compound] | -31 Millimeters of mercury
20 | CC(C)Sc1ccc(OCC(O)CNCCC2CCCCC2)cc1 (stereo not shown) [Example 5, 1-[(2-cyclohexylethyl)amino]-3-[4-[(1-methylethyl)thio]phenoxy]-2-propanolhydrochloride] | -63 Millimeters of mercury

same assay, conditions: infusion rate 0.3 mg./min.; side-by-side comparison in same animals

Row | SMILES | Pressure Decrease
21 | CSc1ccc(OCC(O)CNC(C)C)cc1 (stereo not shown) [Test agent B, 1-(isopropylamino)-3-[4-(methylthio)phenoxy]-2-propanol, reference compound] | -3 Millimeters of mercury

same assay, conditions: infusion rate 1.0 mg./min.

Row | SMILES | Pressure Decrease
22 | CCCCCCCCNCC(O)COc1ccc(SC)cc1 (stereo not shown) [Example 1, 1-[4-(Methylthio)phenoxy]-3-(octylamino)-2-propanol] | -59 Millimeters of mercury
23 | CC(C)Sc1ccc(OCC(O)CNCCC2CCCCC2)cc1 (stereo not shown) [Example 5, 1-[(2-cyclohexylethyl)amino]-3-[4-[(1-methylethyl)thio]phenoxy]-2-propanolhydrochloride] | -87 Millimeters of mercury

same assay, conditions: infusion rate 1.0 mg./min.; side-by-side comparison in same animals

Row | SMILES | Pressure Decrease
24 | CSc1ccc(OCC(O)CNC(C)C)cc1 (stereo not shown) [Test agent B, 1-(isopropylamino)-3-[4-(methylthio)phenoxy]-2-propanol, reference compound] | -29 Millimeters of mercury

system: alpha-adrenergic; assay: Isolated rabbit thoracic aorta, antispasmodic (anti-alpha-adrenergic) activity vs. norepinephrine; format: cell-based, rabbit (New Zealand White); settings: norepinephrine as agonist
Description: as §1, with “solutions. […] Selective activity against norepinephrine-induced spasms is indicative of alpha-adrenergic blocking (i.e. antispasmodic) activity. […] Phentolamine is an alpha-adrenergic blocking agent and a standard reference in the art. […] This experiment illustrates that the instant compounds are non-anti-alpha-adrenergic antispasmodic agents in that they have a substantial direct smooth muscle relaxant effect (as shown in Example 34) relatively uncomplicated by any significant selective alpha-adrenergic blocking effect.” for “solutions.”

Row | SMILES | anti-alpha-adrenergic activity (in words)
25 | CSc1ccc(OCC(O)CNC(C)C)cc1 (stereo not shown) [Test agent B, 1-(isopropylamino)-3-[4-(methylthio)phenoxy]-2-propanol, reference compound] | essentially inactive
